Experimental data taken from patent US8598084B2, “Synergistic herbicide/insecticide composition containing certain pyridine carboxylic acids and certain insecticides” (priority 2010, dated 2013).

What was measured:
Assay type in all cases: in vivo
[1] = system: wild pansy (Viola tricolor L; VIOTR); assay: Postemergence herbicidal activity of mixtures, greenhouse, visual injury vs control; conditions: for pest or weed control at 1.25 g/ha: 1.25 g/ha alone
Experimental: (§1) Evaluation of Postemergence Herbicidal Activity of Mixtures in Cereal Crops
(§2) Seeds of the desired test plant species were planted in Sun Gro MetroMix® 306 planting mixture, which typically has a pH of 6.0 to 6.8 and an organic matter content of about 30 percent, in plastic pots with a surface area of 103.2 square centimeters (cm^2). When required to ensure good germination and healthy plants, a fungicide treatment and/or other chemical or physical treatment was applied. The plants were grown for 7-36 days (d) in a greenhouse with an approximate 14 hour (h) photoperiod which was maintained at about 18° C. during the day and 17° C. during the night. Nutrients and water were added on a regular basis and supplemental lighting was provided with overhead metal halide 1000-Watt lamps as necessary. The plants were employed for testing when they reached the second or third true leaf stage.
(§3) Treatments consisted of an insecticidal compound (as listed in Tables 1 through 18) and the cereal herbicide, 4-amino-3-chloro-6-(4-chloro-2-fluoro-3-methoxyphenyl)pyridine-2-carboxylic acid, alone and in combination. Weighed amounts of esters (methyl) or salts (triethylammonium, TEA) of 4-amino-3-chloro-6-(4-chloro-2-fluoro-3-methoxyphenyl)pyridine-2-carboxylic acid (Compound I) were placed in 25 milliliter (mL) glass vials and dissolved in a volume of 97:3 volume per volume (v/v) acetone/dimethyl sulfoxide (DMSO) to obtain 4.5 milligrams active ingredient per mL (mg ai/mL) concentrated solutions. […] The concentrated solutions of Compound I were diluted to 1.5 mg ai/mL with the addition of 2 volumes of an aqueous mixture containing acetone, water, isopropyl alcohol, DMSO, Agri-dex crop oil concentrate, and Triton® X-77 surfactant in a 64.7:26.0:6.7:2.0:0.7:0.01 v/v ratio. A dilution solution was prepared by mixing 1 volume of 97:3 v/v acetone/DMSO and 2 volumes of an aqueous mixture containing acetone, water, isopropyl alcohol, DMSO, Agri-dex crop oil concentrate, and Triton® X-77 surfactant in a 64.7:26.0:6.7:2.0:0.7:0.01 v/v ratio. Compound requirements are based upon a 12 mL application volume at a rate of 187 liters per hectare (L/ha). The concentrated solutions of the cereal insecticides were prepared following the same procedure. Weighed amounts of insecticide were placed in 25 milliliter (mL) glass vials and dissolved in a volume of 97:3 v/v acetone/DMSO to obtain concentrated insecticide solutions. The concentrated solutions of the safener were prepared following the same procedure. Weighed amounts of safener were placed in 25 mL glass vials and dissolved in a volume of 97:3 v/v acetone/DMSO to obtain concentrated safener solutions. The concentrated solutions were diluted to 0.75 mg/mL with an aqueous mixture of 1.5% v/v of Agri-dex crop oil concentrate.
(§4) Spray solutions of the cereal herbicide and the insecticidal compound mixtures were prepared by adding the concentrated solutions to the appropriate amount of dilution solution to form 12 mL spray solution with active ingredients in combinations. Spray solutions of the cereal herbicide, herbicide safener and the insecticidal compound mixtures were prepared by adding the concentrated solutions to the appropriate amount of dilution solution to form 12 mL spray solution with active ingredients in combinations. Formulated compounds were applied to the plant material with an overhead Mandel track sprayer equipped with 8002E nozzles calibrated to deliver 187 L/ha over an application area of 0.503 square meters (m^2) at a spray height of 18 inches […] above average plant canopy. Control plants were sprayed in the same manner with the solvent blank.
(§5) The treated plants and control plants were placed in a greenhouse as described above and watered by sub-irrigation to prevent wash-off of the test compounds. […]

[2] = system: Russian thistle (Salsola iberica L; SASKR); assay: as above; conditions: for pest or weed control at 1.25 g/ha: 1.25 g/ha alone
Experimental: as §1, §2, §3, §4, §5

[3] = system: bird's-eye speedwell (Veronica persica L; VERPE); assay: as above; conditions: for pest or weed control at 1.25 g/ha: 1.25 g/ha alone;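 for all read-outs here: visual score 0 means no injury and 100 means complete kill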
Experimental: as §1, §2, §3, §4, §5

[4] = system: scented mayweed (Matricaria chamomila L; MATCH); assay: as above
Experimental: as §1, §2, §3, §4, §5

[5] = system: kochia (Kochia scoparia L; KCHSC); assay: as above
Experimental: as §1, §2, §3, §4, §5

[6] = system: barley (Hordeum vulgare L; HORVS); assay: Postemergence crop injury and safening, greenhouse, visual injury vs control; conditions: crop injury
Experimental: as §1, §2, §3, §4, §5

[7] = system: wheat (Triticum aestivum L; TRZAS); assay: as above; conditions: crop injury
Experimental: as §1, §2, §3, §4, §5

[8] = system: redroot pigweed (Amaranthus retroflexus L; AMARE); assay: Postemergence herbicidal activity of mixtures, greenhouse, visual injury vs control; conditions: 48 g/ha alone
Experimental: as §1, §2, §3, §4, §5

[9] = system: Canada thistle (Cirsium arvense L; CIRAR); assay: as above; conditions: 48 g/ha alone
Experimental: as §1, §2, §3, §4, §5

[10] = Viola tricolor, post-emergence, read-out: Ob (observed injury)
[11] = Salsola tragus, post-emergence, read-out: Ob (observed injury)
[12] = Veronica persica, post-emergence, read-out: Ob (observed injury)
[13] = Viola tricolor, post-emergence, 35 g/ha alone, read-out: Ob (observed injury)
[14] = Salsola tragus, post-emergence, 35 g/ha alone, read-out: Ob (observed injury)
[15] = Veronica persica, post-emergence, 35 g/ha alone, read-out: Ob (observed injury)
[16] = Bassia scoparia, post-emergence, 35 g/ha alone, read-out: Ob (observed injury)

SMILES: Cc1c(COC(=O)[C@@H]2[C@H](/C=C(\Cl)C(F)(F)F)C2(C)C)cccc1-c1ccccc1 (relative stereo) [Bifenthrin, (2-methyl[1,1′-biphenyl]-3-yl)methyl (1R,3R)-rel-3-[(1Z)-2-chloro-3,3,3-trifluoro-1-propenyl]-2,2-dimethylcyclopropanecarboxylate, reference compound]
- pest or weed control at 1.6 g/ha ([1]; Viola tricolor, post-emergence, 1.6 g/ha alone, read-out: Ob (observed injury)): 0%
- pest or weed control at 1.6 g/ha ([2]; Salsola tragus, post-emergence, 1.6 g/ha alone, read-out: Ob (observed injury)): 0%
- pest or weed control at 1.6 g/ha ([3]; Veronica persica, post-emergence, 1.6 g/ha alone, read-out: Ob (observed injury)): 0%
- pest or weed control at 1.6 g/ha ([4]; Matricaria, post-emergence, 1.6 g/ha alone, read-out: Ob (observed injury)): 0%

SMILES: CC1(C)[C@H](/C=C(\Cl)C(F)(F)F)[C@@H]1C(=O)O[C@@H](C#N)c1cccc(Oc2ccccc2)c1 (relative stereo) [λ-Cyhalothrin, (R)-cyano(3-phenoxyphenyl)methyl (1S,3S)-rel-3-[(1Z)-2-chloro-3,3,3-trifluoro-1-propenyl]-2,2-dimethylcyclopropanecarboxylate]
- pest or weed control at 1.25 g/ha [1, 10]: 0%
- pest or weed control at 1.25 g/ha [2, 11]: 0%
- pest or weed control at 1.25 g/ha [3, 12]: 0%

SMILES: CCOP(=S)(OCC)Oc1nc(Cl)c(Cl)cc1Cl [Chlorpyrifos, O,O-diethyl O-(3,5,6-trichloro-2-pyridinyl) phosphorothioate, reference compound]
- pest or weed control at 60 g/ha ([1]; Viola tricolor, post-emergence, 60 g/ha alone, read-out: Ob (observed injury)): 0%
- pest or weed control at 60 g/ha ([2]; Salsola tragus, post-emergence, 60 g/ha alone, read-out: Ob (observed injury)): 0%
- pest or weed control at 60 g/ha ([3]; Veronica persica, post-emergence, 60 g/ha alone, read-out: Ob (observed injury)): 0%
- pest or weed control at 60 g/ha ([5]; Bassia scoparia, post-emergence, 60 g/ha alone, read-out: Ob (observed injury)): 0%
- pest or weed control at 60 g/ha ([4]; Matricaria, post-emergence, 60 g/ha alone, read-out: Ob (observed injury)): 0%

SMILES: COc1c(Cl)ccc(-c2cc(N)c(Cl)c(C(=O)O)n2)c1F [Compound I Acid, 4-Amino-3-chloro-6-(4-chloro-2-fluoro-3-methoxyphenyl)pyridine-2-carboxylic acid]
- pest or weed control at 35 g/ha [1, 13]: 60%
- pest or weed control at 35 g/ha [2, 14]: 89%
- pest or weed control at 35 g/ha [3, 15]: 72%
- pest or weed control at 35 g/ha [5, 16]: 98%
- Ob (observed injury) ([6]; 35 g/ha alone): 15%
- Ob (observed injury) ([7]; 35 g/ha alone): 22%

SMILES: CCN(CC)CC.COc1c(Cl)ccc(-c2cc(N)c(Cl)c(C(=O)O)n2)c1F [Compound I TEA salt]
- Ob (observed injury) ([1]; 8.75 g/ha alone): 23%
- Ob (observed injury) ([1]; 17.5 g/ha alone): 40%
- Ob (observed injury) ([1]; 35 g/ha alone): 47%
- Ob (observed injury) ([2]; 8.75 g/ha alone): 80%
- Ob (observed injury) ([2]; 17.5 g/ha alone): 84%
- Ob (observed injury) ([2]; 35 g/ha alone): 86%
- Ob (observed injury) ([3]; 8.75 g/ha alone): 10%
- Ob (observed injury) ([3]; 17.5 g/ha alone): 40%
- Ob (observed injury) ([3]; 35 g/ha alone): 70%
- Ob (observed injury) ([5]; 8.75 g/ha alone): 40%
- Ob (observed injury) ([5]; 17.5 g/ha alone): 55%
- Ob (observed injury) ([5]; 35 g/ha alone): 65%
- Ob (observed injury) ([4]; 8.75 g/ha alone): 40%
- Ob (observed injury) ([4]; 17.5 g/ha alone): 67%
- Ob (observed injury) ([4]; 35 g/ha alone): 73%

SMILES: CC1(C)C(C=C(Cl)Cl)C1C(=O)OC(C#N)c1ccc(F)c(Oc2ccccc2)c1 (stereo not drawn) [Cyfluthrin, cyano(4-fluoro-3-phenoxyphenyl)methyl 3-(2,2-dichloroethenyl)-2,2-dimethylcyclopropanecarboxylate, reference compound]
- pest or weed control at 3.75 g/ha ([1]; Viola tricolor, post-emergence, 3.75 g/ha alone, read-out: Ob (observed injury)): 0%
- pest or weed control at 3.75 g/ha ([2]; Salsola tragus, post-emergence, 3.75 g/ha alone, read-out: Ob (observed injury)): 0%
- pest or weed control at 3.75 g/ha ([5]; Bassia scoparia, post-emergence, 3.75 g/ha alone, read-out: Ob (observed injury)): 0%
- pest or weed control at 3.75 g/ha ([4]; Matricaria, post-emergence, 3.75 g/ha alone, read-out: Ob (observed injury)): 0%

SMILES: CC1(C)[C@H](C(=O)O[C@H](C#N)c2cccc(Oc3ccccc3)c2)[C@@H]1C=C(Br)Br [Deltamethrin, (S)-cyano(3-phenoxyphenyl)methyl (1R,3R)-3-(2,2-dibromoethenyl)-2,2-dimethylcyclopropanecarboxylate, reference compound]
- pest or weed control at 1.25 g/ha [1, 10]: 0%
- pest or weed control at 1.25 g/ha [2, 11]: 0%
- pest or weed control at 1.25 g/ha [3, 12]: 0%
- pest or weed control at 1.25 g/ha ([5]; Bassia scoparia, post-emergence, 1.25 g/ha alone, read-out: Ob (observed injury)): 0%
- pest or weed control at 1.25 g/ha ([4]; Matricaria, post-emergence, 1.25 g/ha alone, read-out: Ob (observed injury)): 0%

SMILES: CNC(=O)CSP(=S)(OC)OC [Dimethoate, O,O-dimethyl S-[2-(methylamino)-2-oxoethyl]phosphorodithioate, reference compound]
- pest or weed control at 170 g/ha ([1]; Viola tricolor, post-emergence, 170 g/ha alone, read-out: Ob (observed injury)): 0%
- pest or weed control at 170 g/ha ([2]; Salsola tragus, post-emergence, 170 g/ha alone, read-out: Ob (observed injury)): 0%
- pest or weed control at 170 g/ha ([3]; Veronica persica, post-emergence, 170 g/ha alone, read-out: Ob (observed injury)): 0%
- pest or weed control at 170 g/ha ([5]; Bassia scoparia, post-emergence, 170 g/ha alone, read-out: Ob (observed injury)): 0%

SMILES: N#CCNC(=O)c1cnccc1C(F)(F)F [Flonicamid, N-(cyanomethyl)-4-(trifluoromethyl)-3-pyridinecarboxamide]
- pest or weed control at 17.5 g/ha ([1]; Viola tricolor, post-emergence, 17.5 g/ha alone, read-out: Ob (observed injury)): 0%
- pest or weed control at 17.5 g/ha ([2]; Salsola tragus, post-emergence, 17.5 g/ha alone, read-out: Ob (observed injury)): 0%
- pest or weed control at 17.5 g/ha ([4]; Matricaria, post-emergence, 17.5 g/ha alone, read-out: Ob (observed injury)): 0%

SMILES: CCOC(=O)CC(SP(=S)(OC)OC)C(=O)OCC (stereo not drawn) [Malathion, diethyl[(dimethoxythiophosphinothioyl)thio]butanedioate, reference compound]
- pest or weed control at 280 g/ha ([1]; Viola tricolor, post-emergence, 280 g/ha alone, read-out: Ob (observed injury)): 0%
- pest or weed control at 1120 g/ha ([1]; Viola tricolor, post-emergence, 1120 g/ha alone, read-out: Ob (observed injury)): 0%
- pest or weed control at 280 g/ha ([2]; Salsola tragus, post-emergence, 280 g/ha alone, read-out: Ob (observed injury)): 0%
- pest or weed control at 280 g/ha ([5]; Bassia scoparia, post-emergence, 280 g/ha alone, read-out: Ob (observed injury)): 0%
- pest or weed control at 280 g/ha ([4]; Matricaria, post-emergence, 280 g/ha alone, read-out: Ob (observed injury)): 0%
- Ob (observed injury) ([6]; 280 g/ha alone): 0%
- Ob (observed injury) ([6]; 1120 g/ha alone): 0%
- Ob (observed injury) ([7]; 280 g/ha alone): 0%
- Ob (observed injury) ([7]; 1120 g/ha alone): 0%

SMILES: Cc1nc(N(C)C)nc(OC(=O)N(C)C)c1C [Pirimicarb, 2-(dimethylamino)-5,6-dimethyl-4-pyrimidinyl dimethylcarbamate, reference compound]
- pest or weed control at 35 g/ha [1, 13]: 0%
- pest or weed control at 35 g/ha [2, 14]: 0%
- pest or weed control at 35 g/ha [3, 15]: 0%
- pest or weed control at 35 g/ha [5, 16]: 0%
- pest or weed control at 35 g/ha ([4]; Matricaria, post-emergence, 35 g/ha alone, read-out: Ob (observed injury)): 0%

SMILES: CC(C)[C@@H](Nc1ccc(C(F)(F)F)cc1Cl)C(=O)OC(C#N)c1cccc(Oc2ccccc2)c1 (stereo partly drawn) [Tau-fluvalinate, cyano(3-phenoxyphenyl)methyl N-[2-chloro-4-(trifluoromethyl)phenyl]-D-valinate, reference compound]
- pest or weed control at 48 g/ha ([1]; Viola tricolor, post-emergence, 48 g/ha alone, read-out: Ob (observed injury)): 0%
- Ob (observed injury) [8]: 0%
- Ob (observed injury) [9]: 0%
